According to paper PMC10073126, “Levosimendan inhibits disulfide tau oligomerization and ameliorates tau pathology in Tau^P301L-BiFC mice” (Experimental & Molecular Medicine, 2023):

Tests used:
tau [1] = target: T1, tau (Homo sapiens, UniProt P10636); test: Tau immunoblot of tau-BiFC cell lysates (reducing and nonreducing SDS-PAGE); conditions: 5 μM, tauK18^P301L-activated tau-BiFC cells
Description: For reducing SDS‒PAGE analysis, cell or brain lysates were mixed with 4x Laemmli buffer containing 10% β-mercaptoethanol (BME) and boiled at 97 °C for 5 min. For nonreducing SDS‒PAGE analysis, cell or brain lysates were mixed with 4x Laemmli buffer without BME. For immunoblot analysis, 10 μg of each lysate was separated on a 10% SDS–PAGE gel and transferred to a PVDF membrane. The levels of total tau and phosphorylated tau were detected by anti-tau antibodies against 2B11 (IBL), Tau5 (Abcam), pSer199 (Abcam), pSer396 (Abcam), and pThr205 (Abcam). […] Band intensity was quantified using ImageJ software (NIH). All data were normalized to β-actin.

[2] = Cell viability of tau-BiFC cells (number of nuclei); format: cell-based, human; conditions: human, HEK293 Tau-BiFC cells, 48 h of treatment
Description: HEK293 Tau-BiFC cells were maintained in Dulbecco’s modified Eagle medium (DMEM) supplemented with 10% fetal bovine serum (FBS), 100 units/mL penicillin, 100 µg/mL streptomycin and 100 µg/mL Geneticin (G418) in a humidified atmosphere containing 5% CO2 at 37 °C. Tau-BiFC cells were activated by treatment with FK (30 μM) or tauK18^P301L (5 μg/mL).
For screening of FDA-approved & Passed Phase I Drug Library, tau-BiFC cells were plated on µ-clear 384-well plates. The next day, the cells were cotreated with forskolin and 1,018 library compounds at a concentration of 10 µM. MB and LMTM (3 µM) were used as positive controls. After 46 h, nuclei were counterstained with Hoechst (Invitrogen). BiFC (λex = 460–490 nm and λem = 500–550 nm) and Hoechst (λex = 355–385 nm and λem = 430–500 nm) fluorescence images were acquired automatically by using Operetta® (PerkinElmer). BiFC fluorescence intensity and the number of nuclei were quantified using Harmony 3.1 software (PerkinElmer). Integrated tau-BiFC intensity represents the area of selected cell X mean fluorescence intensity. The means and standard deviations (S.D.) of BiFC fluorescence intensities and the number of nuclei were plotted using GraphPad Prism.

[3] = system: primary hippocampal neurons; test: NeuO staining, number of neurons and neurite lengths; format: cell-based; conditions: 3 μM, tauK18^P301L, 48 h
Description: (§1) Primary hippocampal neurons were isolated from Day 18 embryonic Sprague‒Dawley rat brains as described previously. The neurons were seeded at a density of 3.5 × 10^5 cells per well on a poly-D-lysine-coated 6-well plate and maintained in neurobasal medium at 37 °C in a humidified atmosphere of 5% CO2. The neurobasal medium contained 2% B27 supplement, 0.5 mM GlutaMAX, 100 units/mL penicillin, and 100 μg/mL streptomycin. Every 3 days, 50% of the medium was replaced with fresh neurobasal medium. At DIV10, neurons were incubated with MB, LMTM (3 µM), or levosimendan (10 µM) in the presence of tauK18^P301L (10 µg/mL) for 48 h.
At DIV10, neurons grown on a 96-well plate were treated with MB, LMTM (3 µM), or levosimendan (10 µM) followed by tauK18^P301L activation. After 48 h, the neurons were stained with NueO (50 nM), a neuron-selective probe. NeuO fluorescence (λex = 460–490 nm and λem = 518–580 nm) images were acquired by using Operetta® (PerkinElmer). The number of neurons and total lengths of neurites were quantified by Harmony 3.1 software (PerkinElmer). Error bars represent the standard deviations (S.D.) of four replicate experiments.

tauK18 [4] = target: T2, tauK18 (Homo sapiens, UniProt P10636); test: TauK18 oligomerization assay in vitro (SDS-PAGE); format: biochemical; conditions: 100 μM, 5 h, nonreducing SDS-PAGE; DMSO control 50 ± 1.1%
T2 construct: under in vitro conditions using a purified tauK18 fragment; 6xHis; made in house; host or cells: E. coli BL21 (DE3)
Description: To induce tau oligomerization, tauK18 (0.5 mg/mL dissolved in PBS, pH 7.4) was incubated with each drug in the presence of DTT (100 μM) and heparin (0.1 mg/mL) at RT for 5 h with vigorous shaking. Then, tau oligomers were separated on 4–20% SDS‒PAGE gels under reducing and nonreducing conditions and visualized by Coomassie blue staining.

Tau-BiFC cells = test: Flow cytometry analysis of tau-BiFC cells; format: cell-based, human; conditions: drug 5 μM with tauK18^P301L
Description: After 24 h, BiFC cells were collected and subjected to flow cytometry analysis using a BD FACSLyric^TM cytometer (BD Biosciences). A total of 50,000 events were acquired per sample. All samples were gated using the same gating tree and gate positions: side scatter area (SSC-A) vs. forward scatter area (FSC-A) for viable and singlet cell populations. BiFC fluorescence was excited by a 488 nm wave laser and collected through a 527/32 bandpass filter.

tau [5] = test: Tau immunoblot of primary hippocampal neuron lysates; format: cell-based, rat; conditions: 3 μM, nonreducing SDS-PAGE, primary neurons, tauK18^P301L; control 1.8 ± 0.3-fold
Description: Band intensity was quantified using ImageJ software (NIH). All data were normalized to β-actin.
as §1

tauK18 [6] = target: T2, tauK18; test: In vitro tau aggregation assay (thioflavin S); format: biochemical; conditions: heparin-induced, 5 days
Description: To evaluate the inhibitory effect of drugs on tau aggregation, tauK18 protein (0.5 mg/mL) was incubated with each drug at various concentrations in the presence of DTT (100 μM) and heparin (0.1 mg/mL) at 37 °C for 5 days with vigorous shaking (220 rpm). For the tau disaggregation assay, the preformed aggregation mixture of tauK18 was incubated with each drug at 37 °C for 4 days with vigorous shaking (220 rpm). On the final day of incubation, the level of β-sheet aggregates was evaluated by thioflavin S (ThS) assay. For the ThS assay, 5 μL of each mixture was transferred to a black 384-well plate with 45 μL of PBS containing 10 μM ThS. ThS fluorescence (λex = 430 nm, and λem = 500 nm) was measured by using a Flexstation2 spectrophotometer (Molecular Devices).

tau [7] = target: T1, tau; test: Tau-BiFC response in tau-BiFC cells (high-content imaging); format: cell-based; set-up: expressed in transfected cells; host or cells: HEK293 Tau-BiFC cells (G418-selected); conditions: 100 μM, 48 h, tauK18^P301L
tau cysteines = target: T3, tau cysteines (Homo sapiens, UniProt P10636); test: Covalent binding to tau (14C autoradiography, MALDI-TOF of R1-R4 peptides); conditions: 720 μM with tauK18 72 μM, 2 h, RT
T3 construct: 6xHis; made in house; host or cells: E. coli BL21 (DE3)
Description: TauK18 (1 mg/mL, 72 μM) was incubated with ^14C-levosimendan (720 μM) in PBS containing 5% DMSO at RT for 2 h. Then, the mixture was separated on a 15% SDS–PAGE gel under nonreducing conditions and stained with Coomassie blue. For autoradiography, the SDS–PAGE gel was transferred to a PVDF membrane and scanned by Typhoon FLA 7000 IP (GE Healthcare).
Each repeat domain (R1, R2, R3, R4, R2-C291S or R3-C322S, 150 μM) was incubated with levosimendan (molar ratio 1:10 of a tau repeat domain: levosimendan) at RT for 37 h. The samples were mixed with matrix solution (10 mg mL^−1 sinapinic acid in 0.1% (v/v) trifluoroacetic acid/CAN) at a ratio of 1:1. The mixtures were directly spotted onto the MALDI target and dried. Mass spectra were acquired in reflection/linear positive ion mode in the m/z range of 2000–100,000 using an Ultraflex III TOF/TOF mass spectrometer controlled by Flex Control 3.0 (Bruker Daltonics). The default operating conditions were as follows: ion source 1, 25.0 kV; ion source 2, 23.0 kV; lens voltage, 6.0 kV; laser repetition rate = 100 Hz. All spectra were generated automatically in the instrument software and based on averaging 1000 shots from 10 nonoverlapping positions (100 shots/position).

tauK18 fragment = test: non-reducing SDS-PAGE with Coomassie staining (disulfide-linked oligomers); tauK18 0.5 mg/mL in PBS pH 7.4 with DTT (100 uM) and heparin (0.1 mg/mL), RT, 5 h, shaking; 4-20% gel; DMSO control, MB, LMTM or levosimendan (10, 30, 100 uM)

T1 sequence (P10636 1-441 isoform P10636-8): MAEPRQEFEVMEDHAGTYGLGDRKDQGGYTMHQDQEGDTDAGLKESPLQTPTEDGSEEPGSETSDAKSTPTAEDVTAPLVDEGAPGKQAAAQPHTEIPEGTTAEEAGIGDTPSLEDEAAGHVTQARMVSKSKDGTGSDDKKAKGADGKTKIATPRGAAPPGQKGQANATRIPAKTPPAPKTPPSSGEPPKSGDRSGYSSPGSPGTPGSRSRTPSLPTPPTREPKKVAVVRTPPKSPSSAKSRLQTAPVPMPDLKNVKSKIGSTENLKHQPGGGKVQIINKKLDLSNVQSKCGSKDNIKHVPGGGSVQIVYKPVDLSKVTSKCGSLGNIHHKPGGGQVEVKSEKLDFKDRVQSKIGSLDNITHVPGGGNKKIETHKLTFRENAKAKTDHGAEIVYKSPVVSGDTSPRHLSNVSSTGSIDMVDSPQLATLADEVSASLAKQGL
T1 sequence (P10636 1-441 isoform P10636-8): as above
T2 sequence (P10636 561-685 limits assumed): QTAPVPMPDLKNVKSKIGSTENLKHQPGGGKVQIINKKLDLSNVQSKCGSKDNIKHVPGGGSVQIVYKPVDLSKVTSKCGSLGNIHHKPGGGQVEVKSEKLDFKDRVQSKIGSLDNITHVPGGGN
T3 sequence (P10636 561-689 limits assumed): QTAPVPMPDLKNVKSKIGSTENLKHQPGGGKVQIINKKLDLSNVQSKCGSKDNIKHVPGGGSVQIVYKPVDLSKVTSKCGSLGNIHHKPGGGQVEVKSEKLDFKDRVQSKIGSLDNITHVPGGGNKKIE

With `CN(C)c1ccc2nc3ccc(=[N+](C)C)cc-3sc2c1` [MB, methylene blue] the “Level of disulfide-linked tau oligomers compared to basal” value (tau [1]; nonreducing SDS-PAGE, control 2.4 ± 0.4-fold) was 1.6 ± 0.3 fold, the “Level of pS199-positive monomers compared to basal” value (tau [1]; reducing gel) was 0.2 ± 0.1 fold and the “Level of pS199-positive oligomers compared to basal” value (tau [1]; reducing gel) was 0.4 ± 0.2 fold. The “Level of pT205-positive monomers compared to basal” value (tau [1]; reducing gel) was 0.1 ± 0.1 fold, the “Level of pT205-positive oligomers compared to basal” value (tau [1]; reducing gel) was 0.7 ± 0.3 fold and the GI50 at 48 h ([2]; Tau-BiFC^ON by forskolin (30 μM)) was 6.2 ± 0.4 µM. The GI50 at 48 h ([2]; Tau-BiFC^ON by tauK18^P301L (5 μg/mL)) was 7.1 ± 0.3 µM, the “Number of NeuO-stained live neurons” value ([3]; basal 1925 ± 66, control 943 ± 30) was 986 ± 150 neurons and the Neurite length ([3]; control 142.8 ± 17.8 μm) was “did not show a significant effect on neuronal integrity”. The “Level of disulfide-linked tau oligomers (of total tau)” value (tauK18 [4]) was 77.6 ± 2.0%, the “P1: intact cell population out of total cells” value (Tau-BiFC cells; 24 h) was 13.7% and the “Median BiFC fluorescence intensity of BiFC-responding cells” value (Tau-BiFC cells; BiFC^ON control […] ± 62, basal 332 ± 110) was 648 ± 49. For the same compound, the “Level of disulfide-linked tau oligomers compared to basal” value (tau [5]) was 2.3 ± 0.5 fold.
In the case of `CC(=O)Nc1ccc(C2=NNC(=O)C[C@H]2C)cc1` [OR-1896], the “Inhibition of tau aggregation in vitro (ThS response)” value (tauK18 [6]) is reported as “did not inhibit tau aggregation in vitro” and the “Inhibition of tau-BiFC fluorescence increase” value (tau [7]) is reported as “did not inhibit the tau-BiFC fluorescence increase”.
With `CC1CC(=O)NN=C1c1ccc(NN=C(C#N)[14C]#N)cc1` (stereo not shown) [^14C-levosimendan] the “Covalent labeling of tau on nonreducing SDS-PAGE (14C-radiography)” value (tau cysteines) was “covalent attachment to tau”.
With tauK18 fragment (domain or fragment) the percent of total tau as disulfide-linked oligomers (DMSO control) (tauK18 fragment) was 50%.
For `C[C@@H]1CC(=O)NN=C1c1ccc(N)cc1` [OR-1855], the “Inhibition of tau aggregation in vitro (ThS response)” value (tauK18 [6]) was “did not inhibit tau aggregation in vitro” and the “Inhibition of tau-BiFC fluorescence increase” value (tau [7]) was “did not inhibit the tau-BiFC fluorescence increase”.
